How the values were obtained:
[1] = test system: MCF-7 (ER+) breast cancer cell xenograft; assay: MCF-7 xenograft in athymic nude mice; type: in vivo, mouse
Source text: (§1) Male athymic nude (NU/NU) mice, age 5 weeks, were purchased from Charles River Laboratories, Inc., (Wilmington, Mass.) and were housed according to institutional and NIH guidelines.
(§2) Human colon (SW480), Breast (MCF-7, MDA-MB-231), and pancreas (MIA PaCa2) cancer cells (2×10^6) suspended in Matrigel (BD Biosciences, San Jose, Calif.) 50% v/v were inoculated subcutaneously in the right flanks of each mouse (10 mice per group) using a 1-mL syringe and 22-gauge needles. After 10 days the animals from each implanted cell line were randomly divided into 2 groups (N=5/group) and gavaged daily with either vehicle (1% methylcelloluse) or NOSH-naproxen (100 mg/kg) or NOSH (100 mg/kg), the ADT-OH-butyl nitrate compound that releases H2S and NO, in the case of colon cancer xenografts; or NOSH-aspirin (100 mg/kg body weight) in the breast and pancreatic cancers groups. The tumor size was measured every other day using electronic calipers, the tumor volumes were calculated using the following formula: length×width^2/2. The weights of the mice were also recorded every 3 days. Twenty-seven (27) to thirty (30) days post inoculation, the mice were sacrificed, the tumors collected, weighed, and photographed.

[2] = test system: HT-29 colon cancer cells; assay: Cell proliferation, PCNA expression; type: cell-based, human; conditions: 24 hours
Description: (§3) Growth inhibition was measured using a colorimetric MTT assay kit (Roche, Indianapolis, Ind.). Proliferation (PCNA) was assessed using an ELISA kit from Calbiochem, (La Jolla, Calif.). Cell cycle phase distributions and apoptosis of control and treated cells were determined as previously described. All methods are described in Chattopadhyay et al., Biochemical Pharmacology, 2012, 83(6), 715-722.

[3] = test system: HT-29 colon cancer cells; assay: Apoptosis, Annexin V staining and flow cytometry; type: cell-based, human
Description: as §3

[4] = test system: MDA-MB-231 (ER−) breast cancer cell xenograft; assay: MDA-MB-231 xenograft in athymic nude mice; type: in vivo, mouse
Source text: as §1, §2

[5] = test system: HT-29 cells xenograft; assay: HT-29 tumor xenograft in athymic nude mice; type: in vivo, mouse
Description: Male athymic nude (NU/NU) mice (N=8), age 5 weeks, were purchased from Charles River Laboratories, Inc., (Wilmington, Mass.). HT-29 cells (2×10^6) suspended in 50% v/v Matrigel (BD Biosciences, San Jose, Calif.) were inoculated subcutaneously in the right flanks of each mouse. When the tumors reached an average sizes of ˜80 mm^3, the mice were randomly divided (N=4/group) and gavaged daily for 18 days with either vehicle (1% methylcelloluse) or NOSH-1 (100 mg/kg body weight). Tumor size (length and width) was measured at 3 day intervals with an electronic caliper from which tumor volume was calculated as length×width^2/2. The mice were weighed every 3 days and were closely monitored for signs of toxicity.

[6] = test system: SW480 colon cancer cell xenograft; assay: SW480 xenograft in athymic nude mice; type: in vivo, mouse
Source text: as §1, §2

[7] = 100 mg/kg daily, day 27, vs control

With O=C(CCCO[N+](=O)[O-])Oc1ccccc1C(=O)Oc1ccc(-c2cc(=S)ss2)cc1 [NOSH-1, 4-(3-thioxo-3H-1,2-dithiol-5-yl)phenyl 2-((4-(nitrooxy)butanoyl)oxy)benzoate] the mean tumor volume ([1]; 100 mg/kg daily gavage, end of study, control 935±93) was 48±9 mm^3, the “reduction of tumor mass” value [1, 7] was 55% and the average tumor mass ([1]; 100 mg/kg daily, day 27, control 0.46±0.056) was 0.21 ± 0.035 g. For the same compound, the “mean reduction of tumor volume” value ([1]; 100 mg/kg daily, vs control) was 98%, the “reduction of PCNA expression” value ([2]; 0.5×IC50 (25 nM)) was 18.2±1.5% and the “reduction of PCNA expression” value ([2]; 1×IC50 (50 nM)) was 50.3±3.2%. The “reduction of PCNA expression” value ([2]; 2×IC50 (100 nM)) was 77.4±2.2%, the “cells in early apoptotic phase” value ([3]; 0.5×IC50, 24 hours) was 24.7±1.4% and the “cells in early apoptotic phase” value ([3]; 1×IC50, 24 hours) was 32.8±2.1%. The “cells in early apoptotic phase” value ([3]; 2×IC50, 24 hours) was 55.9±3.3%, the mean tumor volume ([4]; 100 mg/kg daily gavage, end of study, control 1886±200) was 35±9 mm^3 and the “reduction of tumor mass” value [4, 7] was 91%. The average tumor mass ([4]; 100 mg/kg daily, day 27, control 1.2±0.33) was 0.11 ± 0.058 g, the “mean reduction of tumor volume” value ([4]; 100 mg/kg daily, vs control) was 98% and the signs of toxicity ([5]; 100 mg/kg daily for 18 days) was “no overt signs of toxicity”. The “mean reduction of tumor volume” value ([5]; 100 mg/kg daily for 18 days, vs control) was 85%, the mean tumor volume ([5]; 100 mg/kg daily gavage for 18 days, control 2300±200) was 350±35 mm^3 and the “tumor volume versus vehicle (FIG. 7B)” value ([5]; 6 days after treatment to sacrifice, P<0.05 day 6, P<0.01 days 9-18) was “significantly reduced tumor volume”. For the same compound, the “average weight of the mice, beginning of the study” value ([5]; treated mice, 100 mg/kg daily) was 21.7 ± 0.82 g and the “average weight of the mice, end of the study” value ([5]; treated mice, 100 mg/kg daily for 18 days) was 27.2 ± 1.1 g.
CC(C(=O)Oc1ccc(-c2cc(=S)ss2)cc1)c1ccc2cc(OC(=O)CCCO[N+](=O)[O-])ccc2c1 (stereo not drawn) [NOSH-7, 6-(1-oxo-1-(4-(3-thioxo-3H-1,2-dithiol-5-yl)phenoxy)propan-2-yl)naphthalen-2-yl 4-(nitrooxy)butanoate] was tested, and the mean tumor volume ([6]; 100 mg/kg daily gavage, end of study, control 2098±603) was 379±73 mm^3, the “reduction of tumor mass” value ([6]; 100 mg/kg daily, day 30, vs control) was 55% and the average tumor mass ([6]; 100 mg/kg daily, day 30, control 1.42±0.48) was 0.63 ± 0.11 g. The “mean reduction of tumor volume” value ([6]; 100 mg/kg daily, vs control) was 82%.

Source: patent US10450260B2, “NO- and H2S-releasing compounds” (RESEARCH FOUNDATION OF THE CITY UNIVERSITY OF NEW YORK, priority 2011, dated 2019)
